Assay results published in PubChem BioAssay AID328 (DTP/NCI, 2004).
Values joined by “and” are separate entries in the source; they are usually repeats but may differ in a detail not shown here. Identical values can stand only once. Toxic doses and inconclusive results are not listed. Rule for the calls: active = survival T/C of 150% or more; inactive = T/C below 125% in these data.

Test system: BDF1 mice, P388 leukemia ip, median survival T/C
Assay: NCI In Vivo Anticancer Drug Screen. Data for tumor model P388 Leukemia (intraperitoneal) in B6D2F1 (BDF1) mice
Conditions: endpoint: median survival time, higher = longer survival
Outline: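 Mice carrying the transplantable tumour receive compound or vehicle. Survival is followed in each arm, and the treated measure is divided by the vehicle measure.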

[1] = dose: 50.0 mg/kg/injection, schedule: Q04DX003 (ip), vehicle: saline with Tween-80
[2] = dose: 100.0 mg/kg/injection, schedule: Q04DX003 (ip), vehicle: saline with Tween-80
[3] = dose: 25.0 mg/kg/injection, schedule: Q01DX009 (ip), vehicle: saline
[4] = dose: 50.0 mg/kg/injection, schedule: Q01DX009 (ip), vehicle: saline
[5] = dose: 100.0 mg/kg/injection, schedule: Q01DX009 (ip), vehicle: Klucel (hydroxypropylcellulose) (HPC)
[6] = dose: 200.0 mg/kg/injection, schedule: Q01DX009 (ip), vehicle: Klucel (hydroxypropylcellulose) (HPC)
[7] = dose: 100.0 mg/kg/injection, schedule: Q04DX003 (ip), vehicle: saline
[8] = dose: 12.5 mg/kg/injection, schedule: Q04DX003 (ip), vehicle: saline with Tween-80
[9] = dose: 25.0 mg/kg/injection, schedule: Q04DX003 (ip), vehicle: saline with Tween-80
[10] = dose: 50.0 mg/kg/injection, schedule: Q01DX009 (ip), vehicle: saline with Tween-80
[11] = dose: 100.0 mg/kg/injection, schedule: Q01DX009 (ip), vehicle: saline with Tween-80

Measured: T/C

Clc1ccc(CN2COc3c(ccc4cccnc34)C2)cc1Cl
inactive: [1] 104 % of control | [2] 104 % of control and 118 % of control | dose: 200.0 mg/kg/injection, schedule: Q04DX003 (ip), vehicle: saline with Tween-80 109 % of control | dose: 400.0 mg/kg/injection, schedule: Q04DX003 (ip), vehicle: saline with Tween-80 120 % of control

COC1/C=C/OC2(C)Oc3c(C)c(O)c4c(O)c(c(/C=N/N5CCN(Cc6ccccc6)CC5)c(O)c4c3C2=O)NC(=O)C(C)=C/C=C/C(C)C(O)C(C)C(O)C(C)C(OC(C)=O)C1C (configuration not stated)
inactive: [3] 119 % of control | [4] 100 % of control

CN1CCc2ccccc2C1Cc1ccccc1NC(=O)c1sc2ccccc2c1Cl (configuration not stated)
inactive: dose: 50.0 mg/kg/injection, schedule: Q01DX009 (ip), vehicle: Klucel (hydroxypropylcellulose) (HPC) 86 % of control | [5] 91 % of control | [6] 89 % of control

NCCc1cnc2ccccc2n1
inactive: dose: 18.0 mg/kg/injection, schedule: Q01DX009 (ip), vehicle: saline 96 % of control | [3] 100 % of control | dose: 25.0 mg/kg/injection, schedule: Q04DX003 (ip), vehicle: saline 100 % of control | dose: 37.0 mg/kg/injection, schedule: Q01DX009 (ip), vehicle: saline 92 % of control | [4] 120 % of control | dose: 50.0 mg/kg/injection, schedule: Q04DX003 (ip), vehicle: saline 100 % of control | [7] 100 % of control

C#CCOC(=O)NCC
inactive: dose: 100.0 mg/kg/injection, schedule: Q01DX009 (ip), vehicle: saline 100 % of control | [7] 100 % of control | dose: 200.0 mg/kg/injection, schedule: Q01DX009 (ip), vehicle: saline 115 % of control | dose: 200.0 mg/kg/injection, schedule: Q04DX003 (ip), vehicle: saline 100 % of control | dose: 400.0 mg/kg/injection, schedule: Q01DX009 (ip), vehicle: saline 115 % of control | dose: 400.0 mg/kg/injection, schedule: Q04DX003 (ip), vehicle: saline 104 % of control

NCCCn1c2ccccc2c2cnccc21
inactive: dose: 5.0 mg/kg/injection, schedule: Q01DX009 (ip), vehicle: water 105 % of control | dose: 10.0 mg/kg/injection, schedule: Q01DX009 (ip), vehicle: water 94 % of control | dose: 20.0 mg/kg/injection, schedule: Q01DX009 (ip), vehicle: water 119 % of control | dose: 25.0 mg/kg/injection, schedule: Q01DX009 (ip), vehicle: water 91 % of control | dose: 25.0 mg/kg/injection, schedule: Q04DX003 (ip), vehicle: water 103 % of control | dose: 40.0 mg/kg/injection, schedule: Q01DX009 (ip), vehicle: water 119 % of control | dose: 50.0 mg/kg/injection, schedule: Q04DX003 (ip), vehicle: water 107 % of control | dose: 100.0 mg/kg/injection, schedule: Q04DX003 (ip), vehicle: water 99 % of control

O=[N+]([O-])/C=C/c1cccc(F)c1
inactive: [8] 107 % of control | [9] 98 % of control | [1] 93 % of control | [2] 87 % of control

CC(=O)C/C(C)=N/NC(=O)c1ccncc1
inactive: dose: 150.0 mg/kg/injection, schedule: Q01DX009 (ip), vehicle: saline with Tween-80 90 % of control

[Cu+2].[O-]c1ccc(Br)c2cccnc12.[O-]c1ccc(Br)c2cccnc12
inactive: [8] 100 % of control | [9] 90 % of control | [1] 95 % of control | dose: 75.0 mg/kg/injection, schedule: Q04DX003 (ip), vehicle: saline with Tween-80 90 % of control

CC(O)C(O)C(N)CC=O (configuration not stated)
inactive: dose: 1.25 mg/kg/injection, schedule: Q01DX001 (ip), vehicle: saline 100 % of control and 110 % of control | dose: 2.5 mg/kg/injection, schedule: Q01DX001 (ip), vehicle: saline 100 % of control and 110 % of control | dose: 5.0 mg/kg/injection, schedule: Q01DX001 (ip), vehicle: saline 100 % of control and 110 % of control | dose: 10.0 mg/kg/injection, schedule: Q01DX001 (ip), vehicle: saline 100 % of control and 105 % of control

O=C1NNC2CCCCC2O1 (configuration not stated)
inactive: [10] 94 % of control | [11] 90 % of control

NNC(=O)CCc1ccccc1Br
inactive: dose: 25.0 mg/kg/injection, schedule: Q01DX009 (ip), vehicle: saline with Tween-80 100 % of control | [10] 100 % of control

COc1ccc2c(c1C)CCC1(CO)CC(C)=CCC21 (configuration not stated)
inactive: dose: 100.0 mg/kg/injection, schedule: Q01DX001 (ip), vehicle: saline sonified 90 % of control | dose: 200.0 mg/kg/injection, schedule: Q01DX001 (ip), vehicle: saline sonified 90 % of control | dose: 400.0 mg/kg/injection, schedule: Q01DX001 (ip), vehicle: saline sonified 86 % of control

CCNc1ncc([N+](=O)[O-])c(Nc2ccccc2)n1
inactive: [10] 103 % of control | [11] 103 % of control | dose: 200.0 mg/kg/injection, schedule: Q01DX009 (ip), vehicle: saline with Tween-80 88 % of control

Nc1c(O)nc[nH]c1=O
inactive: dose: 1.56 mg/kg/injection, schedule: Q01DX009 (ip), vehicle: saline 95 % of control | dose: 3.13 mg/kg/injection, schedule: Q01DX009 (ip), vehicle: saline 109 % of control and 100 % of control | dose: 3.13 mg/kg/injection, schedule: Q04DX003 (ip), vehicle: saline 95 % of control | dose: 6.25 mg/kg/injection, schedule: Q01DX009 (ip), vehicle: saline 100 % of control | dose: 6.25 mg/kg/injection, schedule: Q04DX003 (ip), vehicle: saline 86 % of control and 100 % of control | dose: 12.5 mg/kg/injection, schedule: Q01DX009 (ip), vehicle: saline 100 % of control | dose: 12.5 mg/kg/injection, schedule: Q04DX003 (ip), vehicle: saline 100 % of control

O=C1C(Cl)=C(Cl)C(=O)c2ccccc21
inactive: dose: 6.25 mg/kg/injection, schedule: Q01DX009 (ip), vehicle: Klucel (hydroxypropylcellulose) (HPC) 115 % of control | dose: 12.5 mg/kg/injection, schedule: Q01DX009 (ip), vehicle: Klucel (hydroxypropylcellulose) (HPC) 115 % of control | dose: 25.0 mg/kg/injection, schedule: Q01DX009 (ip), vehicle: Klucel (hydroxypropylcellulose) (HPC) 112 % of control

CN[C@H]1CC[C@]23C[C@]24CC[C@]2(C)[C@@H]([C@H](C)N(C)C)CC[C@@]2(C)[C@@H]4CC[C@H]3C1(C)C
inactive: dose: 2.6 mg/kg/injection, schedule: Q01DX010 (ip), vehicle: saline 90 % of control | dose: 4.0 mg/kg/injection, schedule: Q01DX010 (ip), vehicle: saline 100 % of control | dose: 6.6 mg/kg/injection, schedule: Q01DX010 (ip), vehicle: saline 118 % of control | dose: 8.8 mg/kg/injection, schedule: Q01DX010 (ip), vehicle: carboxymethylcellulose (CMC) 100 % of control | dose: 10.0 mg/kg/injection, schedule: Q01DX010 (ip), vehicle: saline 100 % of control | dose: 13.3 mg/kg/injection, schedule: Q01DX010 (ip), vehicle: carboxymethylcellulose (CMC) 105 % of control | dose: 16.0 mg/kg/injection, schedule: Q01DX010 (ip), vehicle: saline 113 % of control | dose: 20.0 mg/kg/injection, schedule: Q01DX010 (ip), vehicle: carboxymethylcellulose (CMC) 115 % of control | dose: 26.0 mg/kg/injection, schedule: Q01DX010 (ip), vehicle: saline 90 % of control | dose: 30.0 mg/kg/injection, schedule: Q01DX010 (ip), vehicle: carboxymethylcellulose (CMC) 94 % of control | dose: 45.0 mg/kg/injection, schedule: Q01DX010 (ip), vehicle: carboxymethylcellulose (CMC) 94 % of control

CC(C)CCC[C@@H](C)[C@H]1CC[C@H]2[C@@H]3CC=C4C[C@@H](Cl)CC[C@]4(C)[C@H]3CC[C@]12C
inactive: dose: 50.0 mg/kg/injection, schedule: Q04DX003 (sc), vehicle: Klucel (hydroxypropylcellulose) (HPC) 95 % of control | dose: 100.0 mg/kg/injection, schedule: Q04DX003 (sc), vehicle: Klucel (hydroxypropylcellulose) (HPC) 104 % of control | dose: 200.0 mg/kg/injection, schedule: Q04DX003 (sc), vehicle: Klucel (hydroxypropylcellulose) (HPC) 95 % of control

CCCCCCCCCCCCCCCCCS(=O)S(=O)O (configuration not stated)
inactive: dose: 89.0 mg/kg/injection, schedule: Q01DX009 (ip), vehicle: saline with Tween-80 116 % of control | [5] 116 % of control | dose: 132.0 mg/kg/injection, schedule: Q01DX009 (ip), vehicle: Klucel (hydroxypropylcellulose) (HPC) 109 % of control | [6] 119 % of control | dose: 300.0 mg/kg/injection, schedule: Q01DX009 (ip), vehicle: Klucel (hydroxypropylcellulose) (HPC) 122 % of control
